Patent publication US12133523B2, “Anti-freezing composition comprising self-assembly compound” (Korea University Research and Business Foundation, priority 2019, dated 2024)
Entries after “also recorded” stand apart in the source; their conditions may differ. Residues, ends and D or L forms follow the SMILES beside them. *: point of attachment. Fmoc = O=C(OCC1c2ccccc2-c2ccccc21)*

Legend:
[1] = tested on: mouse embryonic stem cells (mESCs); test: mESC cell viability by CCK-8 assay and crystal violet dye; assay type: cell-based; settings: for toxicity to mESC: 5 to 20 uM, CCK-8 and crystal violet dye; for cell viability with respect to mESC: CCK-8
Description: In a 60 mm cell culture dish coated with 0.1% gelatin (Sigma), mouse ES cells were cultured in a medium DMEM (Hyclone), to which 2 mM L-glutamine (Mediatech Inc.), 1% penicillin/streptomycin (Mediatech Inc.), 15% heat-inactivated fetal bovine serum (Hyclone), 20 mM HEPES-pH 7.3 (Cellgro), 0.1 mM MEM non-essential amino acid (Cellgro), 0.1 mM 2-mercaptoethanol (Sigma) and 1000 U/mL LIF (Millipore) are added, in order to prevent differentiation.
Mouse ES cells were seeded by 8×10^4 cells per well in a 96-well plate containing the above various cryopreservation solutions. After 9 hours, CCK-8 reagent was added and fluorescence intensity was measured using an ELISA Reader (TECAN).
[…] Cells were washed with 500 μL of PBS and 500 μL of 4% PFA was added thereto for 15 minutes. The fixed cells were washed twice with 500 μL of PBS and 0.5% crystal violet solution was added thereto for 30 minutes. The stained cells were washed with tap water.

[2] = Critical micellar concentration from emission intensity versus concentration; assay type: physicochemical
[3] = tested on: mouse embryonic stem cells (mESCs); test: Cryopreservation activity for mESC (freeze/thaw survival, differentiation); assay type: cell-based; settings: sample solution 10% (v/v), FBS 40%, media 50%; -80 °C then liquid nitrogen
Description: 250 μL of trypsinized mouse ES cells, 200 μL of FBS and 50 μL of cryopreservation solution (0.005 μM, 0.01 μM, 0.05 μM, and 0.1 μM) were frozen in a rapid freezer for 2 days, and then stored in an LN2 tank. Thawing was performed in a 37° C. constant temperature water bath. The cell frozen stock mixture was inoculated in 4.5 mL medium of 15 mL tube, and then centrifuged at 1000 rpm for 5 minutes. Cell pellets were added with 1 mL medium and inoculated in a 6-well plate.
A cell storage solution was prepared with a sample solution 10% (v/v), FBS 40% (v/v), and media 50% (v/v) according to the present invention, and frozen at −80° C. using a rapid freezer, then the cells were stored for 2 days, and further stored in a liquid nitrogen tank for 2 days or more. Then, the cells were thawed and used in the experiment. In addition, the cells were cultured by treatment with a leukemia inhibitory factor (LIF) to confirm the differentiation ability of stem cells. All the controls were cultured and differentiated under the same conditions, except that deionized water was added instead of the sample according to the present invention.

[4] = Ice recrystallization inhibition (IRI) splat assay, MLGS from DFOM images; settings: for IRI effect: ice recrystallized 30 minutes at -6 °C
Description: In order to more clearly confirm the effect of inhibiting ice crystal growth, ice recrystallization inhibition (IRI) characteristics were analyzed. Analysis of ice recrystallization was performed by reference Mitchell, D. E., Clarkson, G., Fox, D. J., Vipond, R. A., Scott, P., & Gibson, M. I. (2017). Antifreeze Protein Mimetic Metallohelices with Potent Ice Recrystallization Inhibition Activity. Journal of the American Chemical Society, 139(29), 9835-9838 and Budke, C., Heggemann, C., Koch, M., Sewald, N., & Koop, T. (2009). Ice Recrystallization Kinetics in the Presence of Synthetic Antifreeze Glycoprotein Analogues Using the Framework of LSW Theory. The Journal of Physical Chemistry B, 113(9), 2865-2873. More specifically, a 10 μL sample was dropped from a height of 1.5 m onto a surface of a cover glass precooled to −60° C. so as to form a thin film of ice. […] During recrystallization of ice, dark-field optical microscopy (DFOM) images were taken, and ten of the largest ice crystal domains were chosen and a mean value thereof was obtained to evaluate the IRI activity. A mean largest grain size (MLGS) analysis was repeated three times.

[5] = Freezing control on food (beef frozen at -20 °C, thawed; SEM, optical microscope, TEM)
Description: In order to determine whether Fmoc-FFT can be used as a cryoprotectant for foods, Fmoc-FFT was added to beef (FIG. 22a), then frozen at −20° C. for one day, thawed at room temperature, and then SEM images were observed (FIGS. 22b and d).
After freezing and thawing, Fmoc-FFT was added to water in order to confirm the beef tissue, frozen at −20° C., then the process of recrystallization of ice was observed under an optical microscope.
Further, in order to confirm the tissue change in more detail, the thawed tissue was rapidly frozen in liquid nitrogen, then cut while maintaining −20° C., and the internal tissue was checked. […] It was observed that, when the Fmoc-FFT was not added, the size of tissue pore was 22±8.6 μm, while it was 5±2.3 μm when adding the same.

[6] = Gold nanoparticle (MPA-AuNP) colorimetric freeze/thaw assay for TH and IRI activity; settings: for aggregation of gold particles after freezing/thawing (absorption peak shift 525 nm to 650 nm): 50 μL of 0.5 mM sample in 350 μL of 300 μM MPA-AuNP, -65 °C 23 min
Description: Thermal hysteresis (TH) as anti-freezing activity was measured in accordance with the method described in Park, J.-I., Lee, J. H., Gwak, Y., Kim, H. J., Jin, E., & Kim, Y.-P. (2013). Frozen assembly of gold nanoparticles for rapid analysis of antifreeze protein activity. Biosensors and Bioelectronics, 41, 752-757, and ice recrystallization inhibition (IRI) activity was measured based on Mitchell, D. E., Congdon, T., Rodger, A., & Gibson, M. I. (2015). Gold Nanoparticle Aggregation as a Probe of Antifreeze (Glyco) Protein-Inspired Ice Recrystallization Inhibition and Identification of New IRI Active Macromolecules. Scientific Reports, 5(1). More specifically, when dispersing AFP in a solution in which gold nanoparticles are dispersed, and freezing the solution then thawing again, if the AFP has good conjugating force with an ice crystal surface, the dispersibility of gold nanoparticles is good to maintain an original color of the solution, whereas if it has weak conjugating force, AFP is precipitated, and when ice crystals are rapidly formed, the solution is subjected to color change.
Gold nanoparticles (Cit-AuNP) stabilized with citric acid were synthesized to prepare mercaptopropionic acid (MPA)-AuNP. 20 mL of a storage solution containing 1 mM HAuCl4·3H2O was added to 50 mL of deionized water (DI water). After the solution was stirred and heated to a boiling point, 30 mM sodium citric acid in 2 mL of deionized water was further added to the solution and heated for 20 minutes. The color of the solution changed from bright yellow to burgundy. […] An average size of MPA-capped AuNP was measured to be about 16.7 nm.
On a microwell plate, 50 μL of a solution containing 0.5 mM sample was added to 350 μL of 300 μM MPA-AuNP solution, respectively. […] To quantitatively confirm the color change before and after freezing, absorption spectra of each mixture were measured with a UH5300 spectrometer before and after freezing. The spectra were measured from 300 nm to 900 nm at a scan speed of 400 nm/min, and aggregation properties (E525/E650) of each mixture were compared. […]

sperms = test: Sperm cryopreservation followed by in vitro fertilization and embryo culture; assay type: cell-based, C57BL/6J mice; settings: sperms frozen in 3% skim milk containing 10 to 20 μM
Description: To cryopreserve sperms, a modified 18% raffinose pentahydrate/3% skim milk (Difco, Becton Dickinson) solution containing 100 mM L-glutamine or skim milk, to which a cryoprotectant according to the present invention was added, was prepared. A human tubal fluid (HTF) medium was used during the IVF process, and a potassium simplex optimized medium (PSOM) was used while 2-cell embryo was cultured to a blastocyst stage.
A sperm cryopreservation solution dispensed in 60 μL was placed in a 35 mm culture dish and covered with paraffin oil. After male mice were sacrificed with […], a tail of epididymis was removed and divided into pieces, and all fats and blood were removed while observing under a microscope before transferring to the cryopreservation solution. The culture dish was kept at 37° C. for 3 minutes and gently stirred every minute to allow sperms to disperse from the tissues. […]
Frozen sperms were thawed under various conditions, then added to IVF drops containing eggs and incubated at 37° C. […] After 24 hours from fertilization, a fertilization rate was calculated using the total number of 2-cell embryos as a percentage based on the total number of eggs.
After performing IFV, 2-cell embryos were classified into a group to be cultured in the blastocyst stage and a group to be implanted in the oviduct of ICR females. After giving birth, the number of pups was recorded. […]

Row | Molecule | toxicity to mESC [1] | survival and proliferation of mESC after freezing and thawing [3] | IRI effect [4] | cell viability with respect to mESC [1] | also measured
1 | C[S+](C)[O-] [DMSO, dimethyl sulfoxide, reference compound] | high toxicity | – | – | – | –
2 | CC(O)C(NC(=O)C(CCC(=O)O)NC(=O)C(Cc1ccccc1)NC(=O)C(CCC(=O)O)NC(=O)C(Cc1ccccc1)NC(=O)OCC1c2ccccc2-c2ccccc21)C(N)=O (stereo not shown) [Fmoc-FEFET] (Fmoc-FEFET-NH2; configuration not given here) | no toxicity | survival and proliferation of mESC was smoothly performed | – | – | CMC ([2]; aqueous solution, compared to Fmoc-FFT): 22.8 µM; solubility ([2]; compared to Fmoc-FFT): improved
3 | CC(NC(=O)C(Cc1ccccc1)NC(=O)C(Cc1ccccc1)NC(=O)OCC1c2ccccc2-c2ccccc21)C(N)=O (stereo not drawn) [Fmoc-FFA] (Fmoc-Phe-Phe-Ala-NH2; configuration not given here) | no toxicity | survival and proliferation of mESC was smoothly performed | had the IRI effect | – | –
4 | NC(=O)C(CO)NC(=O)C(Cc1ccccc1)NC(=O)C(Cc1ccccc1)NC(=O)OCC1c2ccccc2-c2ccccc21 (stereo not drawn) [Fmoc-FFS] (Fmoc-Phe-Phe-Ser-NH2; configuration not given here) | – | – | had the IRI effect | significant cell viability | –
5 | CC(O)C(NC(=O)C(Cc1ccccc1)NC(=O)C(Cc1ccccc1)NC(=O)OCC1c2ccccc2-c2ccccc21)C(N)=O (stereo not drawn) [Fmoc-FFT] (Fmoc-Phe-Phe-Thr-NH2; configuration not given here) | no toxicity | survival and proliferation of mESC was smoothly performed | had the IRI effect | – | size of tissue pore ([5]; thawed beef tissue refrozen in liquid nitrogen, cut at -20 °C): 5±2.3 μm; size of recrystallized ice ([5]; versus no Fmoc-FFT added, -20 °C): significantly smaller; also recorded: remarkably smaller; relative IRI activity ([4]; comparison between materials, MLGS): highest IRI activity
6 | CC(C)C(NC(=O)C(Cc1ccccc1)NC(=O)C(Cc1ccccc1)NC(=O)OCC1c2ccccc2-c2ccccc21)C(N)=O (stereo not drawn) [Fmoc-FFV] (Fmoc-Phe-Phe-Val-NH2; configuration not given here) | – | – | had the IRI effect | significant cell viability | –
7 | NC(=O)C(Cc1ccccc1)NC(=O)C(Cc1ccccc1)NC(=O)OCC1c2ccccc2-c2ccccc21 (stereo not drawn) [Fmoc-FF] (Fmoc-Phe-Phe-NH2; configuration not given here) | no toxicity | survival and proliferation of mESC was smoothly performed | – | – | critical micellar concentration (CMC) ([2]; aqueous solution): 17 µM
8 | CC(O)C(NC(=O)C(Cc1ccccc1)NC(=O)C(CC1=CN=C2C=CC=CC12)NC(=O)OCC1c2ccccc2-c2ccccc21)C(N)=O (stereo not shown) [Fmoc-WFT] | – | – | had IRI effects | significant cell viability | aggregation of gold particles after freezing/thawing (absorption peak shift 525 nm to 650 nm) [6]: an aggregation phenomenon was exhibited
9 | CC(O)C(NC(=O)C(CC1=c2ccccc2=NC1)NC(=O)C(CC1=CN=C2C=CC=CC12)NC(=O)OCC1c2ccccc2-c2ccccc21)C(N)=O (stereo not shown) [Fmoc-WWT] | – | – | had IRI effects | significant cell viability | rate of 2-cell embryo formation (sperms): ≥ 77%; aggregation of gold particles after freezing/thawing (absorption peak shift 525 nm to 650 nm) [6]: an aggregation phenomenon was exhibited
10 | CC(O)C(NC(=O)C(Cc1ccccc1)NC(=O)C(Cc1ccccc1)NC(=O)Cc1ccc2ccccc2c1)C(N)=O (stereo not shown) [Naph-FFT] | – | – | had IRI effects | significant cell viability | –
11 | Bovine serum albumin [BSA, reference compound] | – | – | – | – | aggregation of MPA-AuNP (color change) after freezing/thawing ([6]; MPA-AuNP + 2 μM BSA or PEG): aggregation did not occur
